For this assay, the target named is GST-RIPK1 (recombinant GST-RIPK1 kinase domain (residues 1-327)) (Homo sapiens (Human), UniProt Q13546). Description: RIPK1-ADP-Glo Enzymatic Assay. Type of assay: biochemical. The following applies: 25 nM GST-RIPK1, 300 μM ATP, 3 μM dephosphorylated-MBP, 30 min pre-incubation, 150 min reaction. The protocol: The enzymatic activity of RIPK1 is measured using an assay derived from ADP-Glo kit (TMPromega), which provides a luminescent-based ADP detection system. Specifically, the ADP generated by RIPK1 kinase is proportionally detected as luminescent signals in a homogenous fashion. In this context, the assessment of the inhibitory effect of small molecules (EC50) is measured by the effectiveness of the compounds to inhibit the ATP to ADP conversion by RIPK1.
Chain of GST-RIPK1 (recombinant GST-RIPK1 kinase domain (residues 1-327)) (Q13546 1-327): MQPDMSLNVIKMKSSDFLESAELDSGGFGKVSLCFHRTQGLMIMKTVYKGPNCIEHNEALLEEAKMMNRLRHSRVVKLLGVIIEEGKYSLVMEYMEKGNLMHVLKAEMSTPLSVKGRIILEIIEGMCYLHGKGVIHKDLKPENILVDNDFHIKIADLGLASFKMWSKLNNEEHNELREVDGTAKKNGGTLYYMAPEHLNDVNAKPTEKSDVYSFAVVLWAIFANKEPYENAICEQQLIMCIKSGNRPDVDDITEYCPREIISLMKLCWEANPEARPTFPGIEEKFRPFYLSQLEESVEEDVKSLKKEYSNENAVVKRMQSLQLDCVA
In this assay, the potency (EC50) of each compound was determined from a ten-point (1:3 serial dilution; top compound concentration of 100000 nM) titration curve using the following outlined procedure. To each well of a white ProxiPlus 384 well-plate, 30 nL of compound (1% DMSO in final assay volume of 3 μL) was dispensed, followed by the addition of 2 μL of 1× assay buffer (25 mM Hepes 7.3, 20 mM MgCl2, 50 mM NaCl, 1 mM DTT, 0.005% Tween20, and 0.02% BSA) containing 37.5 nM of GST-RIPK1 (recombinant GST-RIPK1 kinase domain (residues 1-327) enzyme produced from baculovirus-transfected Sf21 cells: MW 62 kDa). Plates were placed in an ambient temperature humidified chamber for a 30 min pre-incubation with compound. Subsequently, each reaction was initiated by the addition of 1 μL 1× assay buffer containing 900 μM ATP and 3 μM dephosphorylated-MBP substrate. The final reaction in each well of 3 μL consists of 25 nM of GST-RIPK1, 300 μM ATP, and 3 μM dephosphorylated-MBP. Kinase reactions were allowed to proceed for 150 min prior to adding ADP-Glo reagents per Promega's outlined kit protocol. Dose-response curves were generated by plotting percent effect (% product conversion; Y-axis) vs. Log 10 compound concentrations (X-axis). EC50 values were calculated using a non-linear regression, four-parameters sigmoidal dose-response model.
In general terms: In ADP-Glo the light output rises with the ADP produced.
For the molecule `N#CC12C3C4C1C1C2C3C41n1nc2n(c1=O)[C@H](c1cc(F)cc(F)c1)CC2` (stereo partly drawn) [Compound 1-21, 4-[(5S)-5-(3,5-difluorophenyl)-3-oxo-6,7-dihydro-3H-pyrrolo[2,1-c][1,2,4]triazol-2(5H)-yl]penta-cyclo[4.2.0.0~2,5~.0~3,8~.0~4.7~] octane-1-carbonitrile], the EC50 amounted to 141 nM.

On to `N#CC12CC(n3nc4n(c3=O)[C@H](c3ccc(C(F)F)cc3)CC4)(C1)C2` [Compound 7-1, (S)-3-(5-(4-(difluoromethyl)phenyl)-3-oxo-6,7-dihydro-3H-pyrrolo[2,1-c][1,2,4]triazol-2(5H)-yl)bicyclo[1.1.1]pentane-1-carbonitrile], for which the EC50 came out at 90.2 nM.

Consider `O=c1n(C23CC(F)(C2)C3)nc2n1[C@H](c1ccc(F)cc1)CC2` [Compound 1-37, (5S)-2-(3-fluorobicyclo[1.1.1]pentan-1-yl)-5-(4-fluorophenyl)-2,5,6,7-tetrahydro-3H-pyrrolo[2,1-c][1,2,4]triazol-3-one], for which the concentration giving a half-maximal response (EC50) amounted to 65.6 nM.

Regarding `Cc1ccc([C@@H]2CCc3nn(C45CC(C#N)(C4)C5)c(=O)n32)cc1` [Compound 4-7, (S)-3-(3-oxo-5-(p-tolyl)-6,7-dihydro-3H-pyrrolo[2,1-c][1,2,4]triazol-2(5H)-yl)bicyclo[1.1.1]pentane-1-carbonitrile], the half-maximal effective concentration (EC50) was 49.5 nM.

Consider `N#CC12CC(n3nc4n(c3=O)[C@H](c3ccc(Cl)cc3)CC4)(C1)C2` [Compound 1-46, (S)-3-(5-(4-chlorophenyl)-3-oxo-6,7-dihydro-3H-pyrrolo[2,1-c][1,2,4]triazol-2(5H)-yl)bicyclo[1.1.1]pentane-1-carbonitrile], for which the EC50 came to 44 nM.

As for `Cc1c(F)cc([C@@H]2CCc3nn(C45CC(F)(C4)C5)c(=O)n32)cc1F` [Compound 1-56, (S)-5-(3,5-difluoro-4-methylphenyl)-2-(3-fluorobicyclo[1.1.1]pentan-1-yl)-2,5,6,7-tetrahydro-3H-pyrrolo[2,1-c][1,2,4]triazol-3-one], the EC50 was found to be 15.8 nM.

Consider `C[C@H]1C[C@@H](c2cc(F)cc(F)c2)n2c1nn(C13CC(C#N)(C1)C3)c2=O` [Compound 1-70, 3-((5S,7S)-5-(3,5-difluorophenyl)-7-methyl-3-oxo-6,7-dihydro-3H-pyrrolo[2,1-c][1,2,4]triazol-2(5H)-yl)bicyclo[1.1.1]pentane-1-carbonitrile], for which the EC50 is 68.5 nM.

As to `Cc1c(F)cc([C@@H]2CCc3nn(C45CC(F)(C4)C5)c(=O)n32)cc1Cl` [Compound 1-72, (S)-5-(3-chloro-5-fluoro-4-methylphenyl)-2-(3-fluorobicyclo[1.1.1]pentan-1-yl)-2,5,6,7-tetrahydro-3H-pyrrolo[2,1-c][1,2,4]triazol-3-one], the concentration giving a half-maximal response (EC50) was 21.2 nM.

As for `N#CC12CC(n3nc4n(c3=O)[C@H](c3ccc(F)cc3F)CC4)(C1)C2` [Compound 1-47, (S)-3-(5-(2,4-difluorophenyl)-3-oxo-6,7-dihydro-3H-pyrrolo[2,1-c][1,2,4]triazol-2(5H)-yl)bicyclo[1.1.1]pentane-1-carbonitrile], the EC50 came out at 86.4 nM.

Take `O=c1n(C23CC(F)(C2)C3)nc2n1[C@H](c1cc(F)cc(F)c1)CC2F` (single isomer, unassigned) [Compound 6-2, (5S)-5-(3,5-difluorophenyl)-7-(S or R)-fluoro-2-(3-fluorobicyclo[1.1.1]pentan-1-yl)-2,5,6,7-tetrahydro-3H-pyrrolo[2,1-c][1,2,4]triazol-3-one]: the EC50 was determined as 18.4 nM.

In the case of `N#CC12CC(n3nc4n(c3=O)C(c3cnccn3)CC4)(C1)C2` (racemic) [Compound 4-1, (±)-3-(3-oxo-5-(pyrazin-2-yl)-6,7-dihydro-3H-pyrrolo[2,1-c][1,2,4]triazol-2(5H)-yl)bicyclo[1.1.1]pentane-1-carbonitrile], the EC50 was found to be 385 nM.

On to `O=c1n(C23CCC(C(F)F)(CC2)C3)nc2n1[C@H](c1cc(F)cc(F)c1)CC2` [Compound 1-27, (5S)-2-[4-(difluoromethyl)bicyclo[2.2.1]heptan-1-yl]-5-(3,5-difluorophenyl)-2,5,6,7-tetrahydro-3H-pyrrolo[2,1-c][1,2,4]triazol-3-one], for which the EC50 came out at 537 nM.

Take `O=c1n(C23CC(Cl)(C2)C3)nc2n1[C@H](c1ccccc1)CC2` [Compound 1-41, (5S)-2-(3-chlorobicyclo[1.1.1]pentan-1-yl)-5-phenyl-2,5,6,7-tetrahydro-3H-pyrrolo[2,1-c][1,2,4]triazol-3-one]: the EC50 turned out to be 32.9 nM.

For the molecule `Cc1cncc([C@@H]2CCc3nn(C45CC(F)(C4)C5)c(=O)n32)n1` [Compound 4-13, (S)-2-(3-fluorobicyclo[1.1.1]pentan-1-yl)-5-(6-methylpyrazin-2-yl)-2,5,6,7-tetrahydro-3H-pyrrolo[2,1-c][1,2,4]triazol-3-one], the EC50 was 79.8 nM.

Regarding `CC1Cc2nn(C34CC(C#N)(C3)C4)c(=O)n2C1c1cc(F)cc(F)c1` (single isomer, unassigned) [Compound 1-52, 3-[5-(S or R)-(3,5-difluorophenyl)-6-(S or R)-methyl-3-oxo-6,7-dihydro-3H-pyrrolo[2,1-c][1,2,4]triazol-2(5H)-yl]bicyclo[1.1.1]pentane-1-carbonitrile], the EC50 came out at 601 nM.

As for `O=c1n(C23CC(F)(C2)C3)nc2n1[C@H](c1cc(F)cc(F)c1)C[C@@H]2O` [Compound 5-2, (5S,7S)-5-(3,5-difluorophenyl)-2-(3-fluorobicyclo[1.1.1]pentan-1-yl)-7-hydroxy-2,5,6,7-tetrahydro-3H-pyrrolo[2,1-c][1,2,4]triazol-3-one], the EC50 is 25.7 nM.

On to `O=c1n(C23CC(C(F)F)(C2)C3)nc2n1[C@H](c1cncc(F)c1)CC2` [Compound 1-57, (S)-2-(3-(difluoromethyl)bicyclo[1.1.1]pentan-1-yl)-5-(5-fluoropyridin-3-yl)-2,5,6,7-tetrahydro-3H-pyrrolo[2,1-c][1,2,4]triazol-3-one], for which the EC50 is 369 nM.

On to `O=c1n(C23CCC(C2)C3)nc2n1[C@H](c1cc(F)cc(F)c1)CC2` [Compound 1-4, (5S)-2-(bicyclo[2.1.1]hexan-1-yl)-5-(3,5-difluorophenyl)-2,5,6,7-tetrahydro-3H-pyrrolo[2,1-c][1,2,4]triazol-3-one], for which the EC50 was 31.1 nM.

For `N#CC12CC(n3nc4n(c3=O)[C@H](c3cc(F)cc(F)c3)CC4F)(C1)C2` (single isomer, unassigned) [Compound 6-5, 3-[(5S)-5-(3,5-difluorophenyl)-7-(S or R)-fluoro-3-oxo-6,7-dihydro-3H-pyrrolo[2,1-c][1,2,4]triazol-2(5H)-yl]bicyclo[1.1.1]pentane-1-carbonitrile], the EC50 was 274 nM.

Take `N#CC12CC(n3nc4n(c3=O)[C@H](c3cncc(F)c3)CC4)(C1)C2` [Compound 1-11, 3-[(5S)-5-(5-fluoropyridin-3-yl)-3-oxo-6,7-dihydro-3H-pyrrolo[2,1-c][1,2,4]triazol-2(5H)-yl]bicyclo[1.1.1]pentane-1-carbonitrile]: the EC50 is 300 nM.

For `COc1ccc([C@@H]2CCc3nn(C45CC(F)(C4)C5)c(=O)n32)cc1` [Compound 1-66, (S)-2-(3-fluorobicyclo[1.1.1]pentan-1-yl)-5-(4-methoxyphenyl)-2,5,6,7-tetrahydro-3H-pyrrolo[2,1-c][1,2,4]triazol-3-one], the EC50 stood at 85.8 nM.

Consider `Cc1ccccc1[C@@H]1CCc2nn(C34CC(F)(C3)C4)c(=O)n21` [Compound 4-15, (S)-2-(3-fluorobicyclo[1.1.1]pentan-1-yl)-5-(o-tolyl)-2,5,6,7-tetrahydro-3H-pyrrolo[2,1-c][1,2,4]triazol-3-one], for which the EC50 was found to be 341 nM.

For the molecule `O=c1n(C23CC(Cl)(C2)C3)nc2n1[C@H](c1cnccn1)CC2` [Compound 1-59, (S)-2-(3-chlorobicyclo[1.1.1]pentan-1-yl)-5-(pyrazin-2-yl)-2,5,6,7-tetrahydro-3H-pyrrolo[2,1-c][1,2,4]triazol-3-one], the EC50 was found to be 53.9 nM.

On to `CC12CC(n3nc4n(c3=O)[C@H](c3cc(F)cc(F)c3)CC4)(CO1)C2` [Compound 1-14, (5S)-5-(3,5-difluorophenyl)-2-(1-methyl-2-oxabicyclo[2.1.1]hexan-4-yl)-2,5,6,7-tetrahydro-3H-pyrrolo[2,1-c][1,2,4]triazol-3-one], for which the EC50 came to 152 nM.

For the molecule `N#CC12CC(n3nc4n(c3=O)[C@H](c3ccccc3)CC4F)(C1)C2` (single isomer, unassigned) [Compound 6-8, 3-[(5S)-7-(S or R)-fluoro-3-oxo-5-phenyl-6,7-dihydro-3H-pyrrolo[2,1-c][1,2,4]triazol-2(5H)-yl]bicyclo[1.1.1]pentane-1-carbonitrile], the EC50 came to 21.8 nM.

Consider `Cc1cc(F)c([C@@H]2CCc3nn(C45CC(F)(C4)C5)c(=O)n32)c(F)c1` [Compound 1-74, (S)-5-(2,6-difluoro-4-methylphenyl)-2-(3-fluorobicyclo[1.1.1]pentan-1-yl)-2,5,6,7-tetrahydro-3H-pyrrolo[2,1-c][1,2,4]triazol-3-one], for which the concentration giving a half-maximal response (EC50) came out at 20.9 nM.

Usually EC50 stands for the concentration at which the effect is half-maximal.

The values are drawn from patent publication US20240025912A1 (Merck Sharp & Dohme LLC, priority 2022, published 2024).
